Test results: paper PMC5020691, “Cell wall degradation is required for normal starch mobilisation in barley endosperm” (Scientific Reports, 2016)

Key:
Agl97 (maltase) [1] = biological target: T1, Agl97 (maltase) (Hordeum vulgare, UniProt Q9LLY2); test: 4-nitrophenol release, absorbance […] nm; type: biochemical; conditions: 0.6 mM, 50 mM sodium acetate pH 4.5, 5 mM CaCl2, 37 °C
T1 construct: purified recombinant
T1 sequence (Q9LLY2 24-879): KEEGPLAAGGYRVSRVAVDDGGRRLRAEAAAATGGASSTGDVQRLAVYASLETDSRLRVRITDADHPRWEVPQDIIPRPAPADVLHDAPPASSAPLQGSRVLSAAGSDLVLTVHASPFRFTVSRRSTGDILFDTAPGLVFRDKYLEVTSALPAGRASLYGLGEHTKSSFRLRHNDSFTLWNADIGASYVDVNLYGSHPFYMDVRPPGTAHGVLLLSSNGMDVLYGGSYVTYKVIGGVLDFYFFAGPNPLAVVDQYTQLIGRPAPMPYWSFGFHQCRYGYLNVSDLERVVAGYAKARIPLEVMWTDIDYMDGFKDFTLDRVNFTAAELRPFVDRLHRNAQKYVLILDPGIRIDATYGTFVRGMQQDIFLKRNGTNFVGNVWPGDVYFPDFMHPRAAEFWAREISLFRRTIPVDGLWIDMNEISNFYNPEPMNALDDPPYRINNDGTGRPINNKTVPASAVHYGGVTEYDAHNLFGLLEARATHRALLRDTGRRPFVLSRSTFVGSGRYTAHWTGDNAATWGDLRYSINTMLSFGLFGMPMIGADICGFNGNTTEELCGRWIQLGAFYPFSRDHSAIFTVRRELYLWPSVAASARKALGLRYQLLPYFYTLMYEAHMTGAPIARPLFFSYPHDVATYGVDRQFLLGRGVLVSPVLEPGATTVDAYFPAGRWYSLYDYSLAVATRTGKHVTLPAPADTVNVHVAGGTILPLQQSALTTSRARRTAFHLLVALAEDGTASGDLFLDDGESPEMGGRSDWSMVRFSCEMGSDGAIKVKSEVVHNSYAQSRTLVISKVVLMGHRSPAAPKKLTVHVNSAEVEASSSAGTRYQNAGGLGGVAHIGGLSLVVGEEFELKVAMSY

Agl97 (maltase) [2] = biological target: T1, Agl97 (maltase); test: inhibition of pNPG hydrolysis, absorbance […] nm; type: biochemical; conditions: 0.01-100 µM LAB; 0.6 mM pNPG, 50 mM sodium acetate pH 4.5, 5 mM CaCl2, 37 °C
[3] = biological target: AXAH activity of barley endosperm (arabinoxylan arabinofuranohydrolase, endogenous) (barley (endogenous in endosperm of cv NFC Tipple)); test: SEC; endosperm extracts of seedlings at 4-10 dpi on a Sephacryl size exclusion column in 50 mM Tris/HCl pH 7.5, 150 mM NaCl; fractions assayed for enzyme activity; size estimated against protein standards

O=[N+]([O-])c1ccc(O[C@H]2O[C@H](CO)[C@@H](O)[C@H](O)[C@H]2O)cc1 [4-nitrophenyl α-D-glucopyranoside]
4-nitrophenol release, absorbance 405 nm (Agl97 (maltase) [1]): Purified recombinant Agl97 was assayed with pNPG

OC[C@@H]1NC[C@H](O)[C@H]1O [LAB, 1,4-dideoxy-1,4-imino-L-arabinitol]
% inhibition (Agl97 (maltase) [2]): LAB inhibited the activity of purified recombinant maltase (Agl97)

AXAH activity of barley endosperm (arabinoxylan arabinofuranohydrolase, endogenous) (enzyme)
stoichiometry N [3]: 2
